Laboratory results published in patent publication US9161935B2 (TEVA PHARMACEUTICAL INDUSTRIES, LTD., priority 2012, dated 2015).

How the values were obtained:
[1] = Previous pharmacokinetic studies of laquinimod; format: in vivo; conditions: loading dose regimen (double dose on first two days)
Excerpt: In order to decrease thee time to steady state and potentially decrease time to response, a loading dose regimen described below was used to allow steady state levels to be reached in approximately 6-7 days.

fecal calprotectin = assay: Phase IIa trial CD-LAQ-201: changes in fecal calprotectin levels; format: in vivo, human; conditions: for % of patients with a calprotectin decrease from ≧250 μg/g to below 250 μg/g & greater than 50% reduction: Week 8
Excerpt: As used herein, “calprotectin” is a calcium and zinc binding anti-microbial protein released by granulocytes. This protein can be detected in stool and its concentration reflects the number of polymorphonuclear leukocytes (PMN), migrating into the gut lumen. It is therefore considered a bio-marker for intestinal inflammation. […] Proportion of subjects in clinical remission (total CDAI score <150) at weeks 4, 6, 8 and 12 (and were not treatment failures). • 2. Proportion of subjects who respond to treatment (decrease from baseline of at least 100 points in CDAI score ore remission) at week 4, 6, 8 and 12. • 3. Time to remission. • 4. Time to response. • 5. C-Reactive Protein (CRP) change from baseline at weeks 2, 4, 6, 8 and 12. • 6. Fecal calprotectin change from baseline to weeks 2, 4, 6, 8 and 12. • 7. Proportion of subjects with a decrease from baseline of at least 50% in the number of open draining fistulas.

[2] = system: Moderate to severe Crohn's disease (CD) subjects; assay: Phase IIa trial CD-LAQ-201: clinical effect (CDAI remission, response); format: in vivo, human; conditions: for effects on remission and response 100: week 8
Procedure: Overall up to ˜180 Crohn's disease patients are enrolled.
The capsules were prepared using a blend proportional to the 0.6 mg capsules described in PCT International Application No. PCT/US2007/013721 (WO 2007/146248). The capsules were prepared according to the method described in PCT International Application No. PCT/US2007/013721 (WO 2007/146248), which is hereby incorporated by reference into this application.
A loading dose regimen of double the maintenance/intended dose was given during the first two days of study drug treatment. Thereafter, starting on day 3, the daily maintenance/intended dose was administered.
Subjects are required to maintain CDAI diary cards for each day of the screening period and, if randomized, on each day of the treatment and follow-up period. The scores obtained from the seven consecutive diaries completed prior to the baseline visit and to each of weeks 1, 2, 4, 6, 8 and 12 contribute to a total CDAI score at each of the time points.
Moderate to severe Crohn's disease (CD) subjects as determined by a Crohn's Disease Activity Index (CDAI) score of 220-450 (inclusive).
Each dose was studied sequentially in a distinct cohort.
Scheduled in-clinic visits were conducted at screening, baseline and at weeks 1, 2, 4, 6 and 8. […] Subjects who early-discontinues study drug prior to visit week 8 go to follow-up termination visit within 4 weeks (28 days) of study drug discontinuation.
The study exploratory efficacy outcome measures were chosen according to the draft EMEA guidelines for the treatment of active Crohn's disease/induction of remission (EMEA, 2007) • 1. Proportion of subjects in clinical remission (total CDAI score <150) at weeks 4, 6, 8 and 12 (and were not treatment failures). • 2. Proportion of subjects who respond to treatment (decrease from baseline of at least 100 points in CDAI score ore remission) at week 4, 6, 8 and 12. • 3. Time to remission. • 4. Time to response. • 5. C-Reactive Protein (CRP) change from baseline at weeks 2, 4, 6, 8 and 12. • 6. Fecal calprotectin change from baseline to weeks 2, 4, 6, 8 and 12. • 7. Proportion of subjects with a decrease from baseline of at least 50% in the number of open draining fistulas.

CCN(C(=O)c1c(O)c2c(Cl)cccc2n(C)c1=O)c1ccccc1 [laquinimod]
time to steady state levels [1]: 6 to 7 days
% Change from Baseline in fecal calprotectin level at Week 8, Mean ± SD (fecal calprotectin; Laq 0.5 mg): 25.5 ± 132.93%
% Change from Baseline in fecal calprotectin level at Week 8, Median (fecal calprotectin; Laq 0.5 mg): −23.1%
% of patients with a calprotectin decrease from ≧250 μg/g to below 250 μg/g & greater than 50% reduction (fecal calprotectin; Laq 0.5 mg): 38.9%
% Change from Baseline in fecal calprotectin level at Week 8, Mean ± SD (fecal calprotectin; Laq 1.0 mg): 0.2 ± 91.55%
% Change from Baseline in fecal calprotectin level at Week 8, Median (fecal calprotectin; Laq 1.0 mg): −14.4%
% of patients with a calprotectin decrease from ≧250 μg/g to below 250 μg/g & greater than 50% reduction (fecal calprotectin; Laq 1.0 mg): 38.9%
% Change from Baseline in fecal calprotectin level at Week 8, Mean ± SD (fecal calprotectin; Laq 1.5 mg): 13.9 ± 108.97%
% Change from Baseline in fecal calprotectin level at Week 8, Median (fecal calprotectin; Laq 1.5 mg): −18.7%
% of patients with a calprotectin decrease from ≧250 μg/g to below 250 μg/g & greater than 50% reduction (fecal calprotectin; Laq 1.5 mg): 26.7%
% Change from Baseline in fecal calprotectin level at Week 8, Mean ± SD (fecal calprotectin; Laq 2.0 mg): 44.3 ± 198.71%
% Change from Baseline in fecal calprotectin level at Week 8, Median (fecal calprotectin; Laq 2.0 mg): −20.1%
% of patients with a calprotectin decrease from ≧250 μg/g to below 250 μg/g & greater than 50% reduction (fecal calprotectin; Laq 2.0 mg): 36.4%
effect on fecal calprotectin (fecal calprotectin; all doses (0.5-2 mg/day)): reduced fecal calprotectin
objective measures of intestinal inflammation in active CD (fecal calprotectin; all doses (LAQ 0.5-2 mg/day)): reduce objective measures of intestinal inflammation
percentage of patients with fecal calprotectin ≧250 μg/g at baseline showing at least a 50% reduction and levels <250 μg/g at Week 8 (fecal calprotectin; laquinimod groups (all doses), pooled placebo 13.6%): 26.7-38.9%
effects on remission and response 100 ([2]; 0.5 mg/day): effects on remission and response 100 were observed
effects on remission and response 100 ([2]; 1 mg/day): lower magnitude effects
effects on remission and response (conclusion) ([2]; 0.5 and 1 mg doses): clinically relevant effects
time at which clinical remission was achieved ([2]; laquinimod 0.5 mg/day group): ≥ 2 week
time at which response 100 was achieved ([2]; laquinimod 0.5 mg/day group): 7 days
time to clinical remission and response 100 versus pooled placebo ([2]; laquinimod 0.5 mg/day group): earlier than patients in the pooled placebo group
